What was measured:
airway epithelia = experiment: Cl− secretion by cultured normal airway cells on permeable supports (Example 1); assay type: cell-based
Method: (§1) Normal airway cells were cultured on permeable supports and Cl^− secretion assayed as previously described in M. J. Stutts, et al., Am. J. Physiol. 267, C1442-C1451 (1994). Cl^− secretion was measured after administration of the dinucleotide A2P4 (Sigma Chemicals, St. Louis, Mo.). Amiloride was added to block airway epithelial sodium absorption.
Moreover, the administration of A2P4 had no effect on Cl^− secretion in airway epithelia pre-stimulated with UTP, which is known to activate non-CFTR Cl^− channels. […] Stimulation of this receptor is thus a therapeutic strategy for certain lung diseases, including cystic fibrosis.

[1] = tested on: Cultured airway epithelia; experiment: Cl− secretion by cultured airway epithelia, UTP compared with U2P4 (Example 2); assay type: cell-based; conditions: for Mean Cl− secretion Induced: 10^−4 M on mucosal surface, tissues pretreated with amiloride (10^−4 M); for Effectiveness (efficacy) on Cl− secretion, UTP compared with U2P4: 10^−4 M, the highest concentration tested, amiloride (10^−4 M) pretreated
Method: as §1
Studies were carried out according to the method described in Example 1 to compare the effectiveness (efficacy) of UTP and U2P4. Cultured airway epithelia were exposed to a concentration of from 10^−9 M to […] of either UTP or U2P4 in 6 ml of solution circulating over the mucosal surface. The tissues were pretreated with amiloride (10^−4 M) to block Na^+ absorption. Under these conditions, the current generated by the tissues is due to Cl^− secretion. UTP and U2P4 induced a similar pattern of Cl^− secretion. At 10^−4 M, the highest concentration tested, UTP and U2P4 were equieffective (equiefficacious).

With Nc1ncnc2c1ncn2[C@@H]1O[C@H](COP(=O)(O)OP(=O)(O)OP(=O)(O)OP(=O)(O)OC[C@H]2O[C@@H](n3cnc4c(N)ncnc43)[C@H](O)[C@@H]2O)[C@@H](O)[C@H]1O [A2P4] the “Effect on Cl− secretion” value (airway epithelia; airway epithelia pre-stimulated with UTP) was “no effect”, the “Effect on Cl− secretion” value (airway epithelia; exposed to the basolateral surface of the airway epithelial preparation, amiloride added) was “little effect” and the “Effect on Cl− secretion” value (airway epithelia; luminal surface, airway epithelia treated with forskolin, amiloride added) was “stimulated additional Cl^− secretion”.

With O=c1ccn([C@@H]2O[C@H](COP(=O)(O)OP(=O)(O)OP(=O)(O)OP(=O)(O)OC[C@H]3O[C@@H](n4ccc(=O)[nH]c4=O)[C@H](O)[C@@H]3O)[C@@H](O)[C@H]2O)c(=O)[nH]1 [U2P4, UppppU] the “Mean Cl− secretion Induced” value [1] was 43.8 μA/cm^2 and the “Effectiveness (efficacy) on Cl− secretion, UTP compared with U2P4” value [1] was “equieffective”.

In the case of O=c1ccn([C@@H]2O[C@H](COP(=O)(O)OP(=O)(O)OP(=O)(O)O)[C@@H](O)[C@H]2O)c(=O)[nH]1 [UTP, reference compound], the “Mean Cl− secretion Induced” value [1] is reported as 45.3 μA/cm^2 and the “Effectiveness (efficacy) on Cl− secretion, UTP compared with U2P4” value [1] is reported as “equieffective”.
